In ChEMBL document CHEMBL5137070, “N-2-(Phenylamino) Benzamide Derivatives as Dual Inhibitors of COX-2 and Topo I Deter Gastrointestinal Cancers via Targeting Inflammation and Tumor Progression” (J Med Chem, 2022):
Active and inactive are the calls of the source. The rule behind the calls is not given here.

How the values were obtained:
HGC-27 = experiment: Antiproliferative activity against human HGC-27 cells assessed as reduction in cell proliferation incubated for 48 hrs by MTT assay; assay type: functional, cell-based; settings: HGC-27, 48 h
RKO [1] = experiment: Antiproliferative activity against human RKO cells assessed as reduction in cell proliferation incubated for 48 hrs by MTT assay; assay type: functional, cell-based
CT26.WT = experiment: Antiproliferative activity against mouse CT26.WT cells assessed as reduction in cell proliferation incubated for 48 hrs by MTT assay; assay type: functional, cell-based
HT-29 = experiment: Antiproliferative activity against human HT-29 cells assessed as reduction in cell proliferation incubated for 48 hrs by MTT assay; assay type: functional, cell-based; settings: HT-29, 48 h
[2] = molecular target: T1, DNA topoisomerase 1 (Homo sapiens) (UniProt P11387); experiment: Inhibition of human topoisomerase I assessed as DNA unwinding using DNA pBR322 as substrate at 2 uM incubated for 30 mins by ethidium bromide staining based agarose gel electrophoresis
T1 sequence (whole entry): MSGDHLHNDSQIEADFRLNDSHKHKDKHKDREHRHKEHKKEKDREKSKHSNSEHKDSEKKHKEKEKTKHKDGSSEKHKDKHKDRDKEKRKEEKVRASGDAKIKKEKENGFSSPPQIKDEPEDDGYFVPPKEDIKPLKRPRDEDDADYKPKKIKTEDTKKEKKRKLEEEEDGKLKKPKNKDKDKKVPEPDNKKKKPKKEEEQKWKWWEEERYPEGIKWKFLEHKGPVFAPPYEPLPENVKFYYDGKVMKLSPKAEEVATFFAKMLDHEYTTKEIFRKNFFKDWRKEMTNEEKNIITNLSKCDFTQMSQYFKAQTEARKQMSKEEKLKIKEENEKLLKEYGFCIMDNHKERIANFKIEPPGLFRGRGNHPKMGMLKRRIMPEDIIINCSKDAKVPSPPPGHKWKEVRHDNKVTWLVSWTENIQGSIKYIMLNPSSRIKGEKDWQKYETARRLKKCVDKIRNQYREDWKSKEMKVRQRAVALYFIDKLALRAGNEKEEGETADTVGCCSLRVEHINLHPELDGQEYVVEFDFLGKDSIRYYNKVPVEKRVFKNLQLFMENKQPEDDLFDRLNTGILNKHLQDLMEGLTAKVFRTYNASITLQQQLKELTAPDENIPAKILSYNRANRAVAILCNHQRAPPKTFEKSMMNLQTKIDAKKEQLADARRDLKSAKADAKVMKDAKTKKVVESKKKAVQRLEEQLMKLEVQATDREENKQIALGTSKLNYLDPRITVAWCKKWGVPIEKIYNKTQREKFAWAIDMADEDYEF

SGC-7901 = experiment: Antiproliferative activity against human SGC-7901 cells assessed as reduction in cell proliferation incubated for 48 hrs by MTT assay; assay type: functional, cell-based; settings: SGC-7901, 48 h
RKO [3] = experiment: Anti-migration activity against human RKO cells assessed as inhibition of cell migration at 0.37 uM and measured after 24 hrs by wound healing assay; assay type: functional, cell-based
RAW264.7 [4] = experiment: Antiinflammatory activity in mouse RAW264.7 cells assessed as reduction in LPS-induced COX-2 expression at 6.6 uM incubated for 1 hrs followed by LPS stimulation and measured after 24 hrs by western blot analysis; assay type: functional, cell-based; settings: time 25.0 hrs
RAW264.7 [5] = experiment: Cytotoxicity against mouse RAW264.7 cells assessed as reduction in cell viability at <=11.11 for 24 hrs by MTT assay; assay type: toxicity, cell-based; settings: raw264.7, 24 h

Row | SMILES | IC50 (HGC-27) [µM] | IC50 (RKO [1]) [µM] | IC50 (CT26.WT) [µM] | IC50 (HT-29) [µM] | inhibition [2] [%] | IC50 (SGC-7901) [µM] | Activity (RKO [3]) | Activity (RAW264.7 [4]) | Activity (RAW264.7 [5]) [%]
1 | Cc1c(Cl)cccc1Nc1ccccc1C(=O)NCc1ccc(O)c(O)c1 | 16.5 | 59.4 | 9.64 | 19.5 | 55.3 | 59.7 | – | – | –
2 | Cc1cccc(Nc2ccccc2C(=O)NCc2ccc(O)cc2)c1C | 33.1 | 17.4 | > 100 | 19.7 | 19.3 | 22.1 | – | – | –
3 | O=C(NCc1ccc(O)cc1)c1ccccc1Nc1ccccc1 | 54.8 | 69.9 | > 100 | 50.9 | 37.3 | 61 | – | – | –
4 | Cc1c(Cl)cccc1Oc1ccccc1C(=O)NCc1ccc(O)cc1 | 59.4 | 101 | 36.8 | > 100 | 17.6 | 90.4 | – | – | –
5 | Cc1c(Cl)cccc1N(C)c1ccccc1C(=O)NCc1ccc(O)c(F)c1 | 88.1 | > 100 | > 100 | 52.5 | 22.3 | 99.9 | – | – | –
6 | OCc1ccc(O)cc1 [PARAHYDROXYBENZYL ALCOHOL] | > 100 | > 100 | > 100 | > 100 | – | > 100 | – | – | –
7 | O=C(NCc1ccc(O)cc1)c1ccccc1Nc1cccc(Cl)c1 | 26.4 | 24.9 | 38.3 | 43.8 | 26.7 | 32.7 | – | – | –
8 | O=C(Nc1ccc(O)cc1)c1ccccc1Nc1ccccc1 | 74.8 | 66.7 | 52.8 | 72.9 | 8.56 | 61.4 | – | – | –
9 | Cc1ccc(Cl)c(Nc2ccccc2C(=O)NCc2ccc(O)cc2)c1Cl | 35.2 | 28.9 | 83.4 | 23.7 | 5.57 | 20.5 | – | – | –
10 | Cc1c(Cl)cccc1N(C)c1ccccc1C(=O)NCc1ccc(O)cc1 | 58 | > 100 | > 100 | > 100 | 25.9 | 77.7 | – | – | –
11 | Cc1ccc(Nc2cccc(Cl)c2C)c(C(=O)NCc2ccc(O)c(F)c2)c1 | 56.8 | 50.6 | > 100 | 16.2 | 19.7 | 62.1 | – | – | –
12 | O=C(NCCc1ccc(O)cc1)c1ccccc1Nc1ccccc1 | 92.5 | > 100 | 67.8 | 44.5 | 13.8 | 60.4 | – | – | –
13 | O=C(NCCCc1ccc(O)cc1)c1ccccc1Nc1ccccc1 | > 100 | > 100 | > 100 | > 100 | 0 | > 100 | – | – | –
14 | Cc1c(Cl)cccc1Nc1ccccc1C(=O)NCc1ccc(O)cc1 | 34.2 | 8.32 | 10.5 | 13.5 | 35 | 21.1 | – | – | –
15 | Cc1c(Cl)cccc1Nc1ccccc1C(=O)NCc1ccccc1O | 46.9 | 32.7 | > 100 | 51.4 | 15.2 | 38 | – | – | –
16 | CC[C@@]1(O)C(=O)OCc2c1cc1n(c2=O)Cc2cc3ccccc3nc2-1 [CAMPTOTHECIN] | 0.166 | 0.0617 | 0.43 | 1.37 | – | 5.8 | Active | – | –
17 | COc1ccc(NC(=O)c2ccccc2Nc2cccc(Cl)c2C)cc1 | 2.32 | 3.69 | 11 | 5.97 | 2.55 | 5.75 | Active | Active | –
18 | Cc1c(Cl)cccc1Nc1ccccc1C(=O)NCc1cccc2c1OCO2 | 27.7 | 26.9 | > 100 | 22.5 | 3.51 | 41.9 | – | – | –
19 | Cc1c(Cl)cccc1Nc1ccccc1C(=O)NCc1ccc(F)cc1 | 46.4 | 62.4 | > 100 | > 100 | 24.7 | 51.8 | – | – | –
20 | Cc1c(Cl)cccc1Nc1ccccc1C(=O)NCc1cccc(O)c1 | 2.41 | 6.97 | 8.52 | 33.6 | 37.4 | 8.92 | – | – | –
21 | Cc1c(Cl)cccc1Nc1ccccc1C(=O)NCc1ccc(O)c(F)c1 | 12 | 5.23 | 11.6 | 26.3 | 44.7 | 60.8 | – | – | –
22 | Cc1c(Cl)cccc1Nc1ncccc1C(=O)NCc1ccc(O)cc1 | 50.2 | 23.7 | > 100 | 47.3 | 6.87 | 33.9 | – | – | –
23 | Cc1c(Cl)cccc1Nc1ccccc1C(=O)O [TOLFENAMIC ACID] | > 100 | > 100 | > 100 | > 100 | – | > 100 | – | – | > 80
